Results as given in PubChem BioAssay (NCI).
Several values for one entry are separate records, joined by “and”; a condition that tells them apart may be missing. Identical values can stand only once.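 Following 48 hours of exposure in 96-well plates, responses at five concentrations were used to interpolate endpoints linearly. The concentration for 50% growth inhibition is given as GI50. TGI is the concentration that stops growth completely.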

Key:
Test in all cases: NCI anticancer screen, dose series, 48 h
HL-60(TB) leukemia = test system: HL-60(TB) leukemia
K-562 leukemia = test system: K-562 leukemia
LOX IMVI melanoma = test system: LOX IMVI melanoma
MOLT-4 leukemia = test system: MOLT-4 leukemia
NCI-H226 lung = test system: NCI-H226 lung
NCI-H460 lung = test system: NCI-H460 lung
OVCAR-3 ovarian = test system: OVCAR-3 ovarian
PC-3 prostate = test system: PC-3 prostate
SK-MEL-2 melanoma = test system: SK-MEL-2 melanoma
SK-MEL-28 melanoma = test system: SK-MEL-28 melanoma

| SMILES | GI50 (HL-60(TB) leukemia) [µM] | TGI (HL-60(TB) leukemia) [µM] | GI50 (K-562 leukemia) [µM] | TGI (K-562 leukemia) | GI50 (LOX IMVI melanoma) [µM] | TGI (LOX IMVI melanoma) [µM] | GI50 (MOLT-4 leukemia) [µM] | TGI (MOLT-4 leukemia) | GI50 (NCI-H226 lung) [µM] | TGI (NCI-H226 lung) [µM] | GI50 (NCI-H460 lung) [µM] | TGI (NCI-H460 lung) | GI50 (OVCAR-3 ovarian) [µM] | TGI (OVCAR-3 ovarian) [µM] | GI50 (PC-3 prostate) [µM] | TGI (PC-3 prostate) [µM] | GI50 (SK-MEL-2 melanoma) [µM] | TGI (SK-MEL-2 melanoma) [µM] | GI50 (SK-MEL-28 melanoma) [µM] | TGI (SK-MEL-28 melanoma) [µM] |
| --- | --- | --- | --- | --- | --- | --- | --- | --- | --- | --- | --- | --- | --- | --- | --- | --- | --- | --- | --- | --- |
| Cc1cc(O)ccc1O | 2.64 | 7.43 | 13.8 | 48.1 µM | 13.7 | 27.4 | 5.24 | 37.7 µM | 55.6 | > 100 | 45.4 | > 100 µM | 14.1 | 27.9 | 32.8 | > 100 | > 100 | > 100 | 30.6 | > 100 |
| C/C1=C\CC[C@@]2(C)O[C@@H]2C[C@@H]2[C@H](C/C(C)=C/CC1)OC(=O)C21CCN=N1 (some centres undefined) | – | > 100 | 71.2 | 42.7 µM and > 100 µM | – | 75 | > 100 | 75 µM and > 100 µM | – | > 100 | > 100 | 75 µM and > 100 µM | > 100 | > 100 | > 100 | > 100 | > 100 | > 100 | > 100 | > 100 |
| Cn1ccnc1C(=O)/C=C/c1ccc(C(=O)Nc2ccccc2O)cc1 | 2.13 | 5.73 | 0.939 | 34 µM | 1.38 | 3.12 | 2.38 | 8.18 µM | 2.35 | 7.8 | 1.67 | 5.6 µM | 2.32 | 6.37 | 1.89 | 4.8 | 5.9 | 21.8 | 2.11 | 5.07 |
| O=C(Nc1cccc([N+](=O)[O-])c1)c1ccc2ccccc2c1O | 4.71 | > 44.5 | 2.79 | > 100 µM | 9.94 | > 100 | 3.4 | > 46.5 µM | 7.57 | > 100 | 3.69 | > 100 µM | 2.61 | 8.83 | 3.87 | > 80.7 | 3.18 | 16.1 | 6.03 | > 100 |
| Cc1nc(N)sc1N=Nc1cc(Cl)c([N+](=O)[O-])cc1Cl | – | 57.7 | – | 30 µM | – | 36.8 | – | 22.4 µM | – | 44.4 | – | 86.7 µM | – | 40 | – | 53.3 | – | 60 | – | 33.9 |
| Cc1cc(NCCCCNc2ccnc3cc(Cl)ccc23)nc(Nc2ccc(C(=O)N3CCCC3)cc2)n1 | 0.202 | 2.27 | 0.306 | 2.33 µM | 1.48 | 3.05 | 2.81 | 11.6 µM | 5.13 | 18.2 | 1.96 | 4.98 µM | 1.78 | 3.81 | 3.79 | 10.9 | 2.18 | 4.27 | 2 | 4.12 |
| CC(C)=CCc1ccc(O)c(=O)cc1C(C)C | 0.624 | 8.72 | 0.466 | > 100 µM | 0.327 | > 22.9 | 0.394 | > 100 µM | 2.37 | > 100 | 0.42 | > 33.1 µM | 0.654 | > 83.4 | 1.13 | > 100 | 2.06 | > 85.7 | 0.917 | > 100 |
| CCCC(=O)Nc1cc([N+](=O)[O-])c([N+](=O)[O-])cc1OC | – | 39 | – | > 100 µM | – | > 100 | – | – | – | 51.2 | – | 35.4 µM | – | 27.8 | – | > 100 | – | 41.6 | – | 32.2 |
| CC1CC(C)/C(=N/NC(N)=O)C(C(O)CC2CCC(=O)NC2=O)C1 (centres undefined) | 5.6 | > 100 | – | – | 2.48 | > 100 | 4.09 | > 100 µM | 4.69 | > 100 | 4 | > 100 µM | 5.54 | 48.1 | 4.1 | > 100 | 2.2 | 12.3 | 3.91 | > 100 |
| Cc1ccc(/C=C/C(=O)c2ccc(N)cc2)c(C)c1 | 2.89 | 11.4 | 2.03 | 4.84 µM | 0.321 | 1.18 | 1.28 | 3.69 µM | 2.8 | 7.25 | 14.7 | 33.8 µM | – | – | 14.6 | 28.2 | 14 | 28.4 | 16.6 | 30.3 |
| COc1ccc(/C(=N\O)c2cc(OC)c(OC)c(OC)c2)c(OC)c1N | 2.6 | 6.55 | 1.5 | > 100 µM | 5.38 | > 100 | 3.95 | > 100 µM | 46.6 | > 100 | 3.59 | > 100 µM | 2.53 | 7.8 | 4 | > 100 | 7.48 | > 100 | – | – |
| O=C(Nc1ccc(Cl)cc1)c1ccc([N+](=O)[O-])o1 | 2.63 | 7.66 | – | – | 1.34 | 2.97 | 7.19 | > 100 µM | 1.93 | 4.6 | 2.22 | 5.55 µM | 2.92 | 9.4 | 2.35 | > 30.3 | 2.76 | 6.53 | 1.78 | 3.79 |
| O=C(NCC(=O)N1CC[C@H](NC2CCC(O)(c3ccc(-c4ncccn4)cn3)CC2)C1)c1cccc(C(F)(F)F)c1 (some centres undefined) | 55.4 | > 100 | – | – | 32.3 | > 100 | 39.8 | > 100 µM | > 100 | > 100 | 86.5 | > 100 µM | 94.9 | > 100 | 51.6 | > 100 | > 100 | > 100 | > 100 | > 100 |
| COc1ccc(N(C)c2nc(Cl)nc3ccn(C)c23)cc1 | < 0.01 | < 0.01 | < 0.01 | > 100 µM | < 0.01 | > 100 | < 0.01 | > 100 µM | > 100 | > 100 | < 0.01 | > 100 µM | < 0.01 | > 100 | < 0.01 | > 100 | – | – | 5 | > 100 |
